The values below come from patent publication US5043343A (priority 1989, dated 1991).

Molecules are shown by their SMILES. Where a name gives a salt, the structure may show the parent alone.

Experiment [1] addresses muscarinic receptors (3H-QNB site, cerebral cortex). Type of experiment: binding, Hooded Lister rats. To be noted: 0.27nM 3H-QNB, tris buffer pH 7.7, 37° C., 30 min; rat cerebral cortex.
The target of experiment [2] is muscarinic receptors (3H-OXO-M site, cerebral cortex). The experiment is described as follows: Radio ligand binding: displacement of muscarinic agonist 3H-Oxotremorine-M (3H-OXO-M), rat cerebral cortex membranes. Also noted: species or system Hooded Lister rats. To be noted: 2 nM 3H-OXO-M, 2mM magnesium chloride, tris buffer pH 7.7, 37° C., 30 min.

Turning to `CCCCc1noc(C23CCCN(C2)C3)n1` [Example E8, 5-(3-Butyl-1,2,4-oxadiazol-5-yl)-1-azabicyclo[3.1.11]heptane oxalate salt], the IC50 (commonly the point on the concentration scale where inhibition reaches its midpoint) in experiment [1] was 1950 nM; in experiment [2], 49 nM.
The like results for `CCCCCc1noc(C23CCCN(C2)C3)n1` [Example E10, 5-(3-Pentyl-1,2,4-oxadiazol-5-yl)-1-azabicyclo[3.1.1]heptane oxalate salt] were, in that order, 2400 nM and 141 nM.
The matching figures for `C/C=C/Cc1noc(C23CCCN(C2)C3)n1` [Example E11, E-5-(3-But-2-enyl-1,2,4-oxadiazol-5-yl)-1-azabicyclo-[3.1.11]heptane oxalate salt]: 1850 nM and 165 nM.
On to `Nc1noc(C23CCCN(C2)C3)n1` [Example E1, 5-(3-Amino-1,2,4-oxadiazol-5-yl)-1-azabicyclo[3.1.11]heptane], for which the half-maximal inhibitory concentration (IC50) in experiment [1] is 11000 nM; in experiment [2] it was 11 nM.
For `CCCc1noc(C23CCCN(C2)C3)n1` [Example E6, 5-(3-Propyl-1,2,4-oxadiazol-5-yl)-1-azabicyclo[3.1.11]heptane oxalate salt], the half-maximal inhibitory concentration (IC50) in experiment [1] was found to be 1700 nM; in experiment [2] it was 40 nM.
For `CCc1noc(C23CCCN(C2)C3)n1` [Example E5, 5-(3-Ethyl-1.2.4-oxadiazol-5-yl)-1-azabicyclo[3.1.11]-heptane oxalate salt], the IC50 turned out to be 5200 nM in experiment [1] and 71 nM in experiment [2].
The matching figures for `Cc1nnc(C23CCCN(C2)C3)o1` [Example E13, 5-(2-Methyl-1,3,4-oxadiazol-5-yl)-1-azabicyclo[3 1.1]heptane oxalate salt]: 16500 nM and 207 nM.
The matching figures for `c1ncc(C23CCCN(C2)C3)o1` [Example E3, 5-(1,3-Oxazol-5-yl)-1-azabicyc[3.1.1]heptane oxalate salt]: 6250 nM and 37 nM.
The like results for `c1coc(C23CCCN(C2)C3)n1` [Example E4, 5-(1,3-Oxazol-2-yl)-1-azabicvclo[3.1.1]heptane oxalate salt] were, in that order, 60000 nM and 540 nM.
As to `COCc1noc(C23CCCN(C2)C3)n1` [Example E9, 5-(3-Methoxymethyl-1,2,4-oxadiazol-5-yl)-1-azabicyclo-[3.1.11]heptane oxalate salt], the IC50 in experiment [1] came to 13000 nM; in experiment [2] it was 178 nM.
With `CON=C(C)C12CCCN(C1)C2` [Example E15, E and Z-5-Acetyl-1-azabicyclo[3.1.1]heptane O-methyloxime oxalate salt], the IC50 in experiment [1] amounted to 58000 nM; in experiment [2], 290 nM.
The matching figures for `Cc1noc(C23CCCN(C2)C3)n1` [Example E2, 5-(3-Methyl-1,2,4-oxadiazol-5-yl)-1-azabicyclo[3.1.1]heptane oxalate salt]: 5000 nM and 15 nM.
The matching figures for `C1CN2CC(c3nc(C4CC4)no3)(C1)C2` [Example E7, 5-(3-Cyclopropyl-1,2,4-oxadiazol-5-yl)-1-azabicyclo-[3.1.1]heptane oxalate salt]: 580 nM and 62 nM.
The like results for `CO/N=C/C12CCCN(C1)C2` [Example E14, oxalate salt] were, in that order, 24000 nM and 109 nM.
